Data as given in a melting point compilation (Tetko et al.; mined from patent text by program, amines drawn as free bases though some values may be those of a salt).

`N#CSc1nsnc1Cl` showed a melting point of 63 to 65 °C.
With `CCOC(=O)C1=C(C)NC(=S)N(C(=O)OC)C1c1cccc([N+](=O)[O-])c1` (configuration not stated) the melting point was 150 to 151 °C.
Work on `O=C1c2ccccc2C(O)N1CCCN1CCN(c2ccc(Cl)cc2)CC1` (configuration not stated) yielded a melting point of 173 °C.
Compound `CCC=C(CCC)c1c2c(nn1C)N(c1c(C)cc(C)cc1Cl)CCC2` has a melting point of 86.7 to 88.2 °C.
Compound `COc1cc(NCCCCCCN2CCN(C(=O)OCc3ccccc3)CC2)c2nccc(C)c2c1` has a melting point of 73 to 73.5 °C.
`O=C(O)C(CCc1ccccc1)Oc1ccc(-c2ccc(-c3c(Cc4ccccc4)oc4ccccc34)cc2)cc1` (configuration not stated) showed a melting point of 152 to 154 °C.
Compound `COc1ccc(CN(C)CCNc2ccc(NC(=O)c3cccc4c(=O)c5cccc(OC)c5[nH]c34)cc2)cc1OC` has a melting point of 196 °C.
Compound `Cc1cc(Cl)cc(C(=O)Nc2ccc(Cl)cn2)n1` has a melting point of 151 °C.
`Cc1cc(-c2ccc(-c3c(Cc4ccccc4)oc4ccccc34)cc2)cc(C)c1OS(=O)(=O)c1ccc(C(=O)O)c(O)c1` gave a melting point of 165 to 167 °C.
`CCCc1nc(C)n2nc(C(=O)OCC)nc2c1Cc1ccc(-c2ccccc2C#N)cc1` gave a melting point of 108 °C.
Work on `CCOC(C)=NS(=O)(=O)c1nc(-c2ccccc2Cl)ns1` yielded a melting point of 70 to 72 °C.
With `O=C1CCCN1C(=O)c1cccnc1` the melting point was 98 to 100 °C.
In the case of `c1cc(-c2ccnc3nc(N4CCNCC4)nn23)ccn1`, the melting point is reported as 147 to 149 °C.
For `CCc1nc2c(N)nc3ccccc3c2n1CCCCS(=O)(=O)NCc1ccc(OC)cc1`, the melting point was 176 to 177 °C.
In the case of `CCC(CC)c1ccc(Cl)c2nc(Nc3c(C)cc(Cl)cc3OC)n(CC(=O)OC(C)C)c12`, the melting point is reported as 205 to 207 °C.
Compound `CCc1nc2c(cnn2CC)c(NC2CCOCC2)c1CNC(=O)c1cccc(C(=O)NCc2ccc(Cl)c(Br)c2)c1` has a melting point of 115 to 117 °C.
With `OC(CCCc1ccc(Cl)cc1)Cn1ccnc1` (configuration not stated) the melting point was 84 to 85 °C.
In the case of `O=C(NCC12CC3CC(CC(C3)C1)C2)c1c(Cl)ccc2nc(N3CCC[C@@H]3C(=O)O)ccc12`, the melting point is reported as 157 to 160 °C.
Work on `O=C(C=Cc1cc(Br)c(O)c(Br)c1)N1CCc2c([nH]c3ccccc23)C1c1ccc2c(c1)OCO2` (configuration not stated) yielded a melting point of 148 to 150 °C.
Work on `COC(=O)c1ccc(OCC2CC(=O)N(c3ccc(OCC(C)C)cc3)C2)cc1` (configuration not stated) yielded a melting point of 118 °C.
For `Fc1ccc([C@@]2(Cn3nc[nH]c3=S)O[C@@H]2c2ccccc2C(F)(F)F)cc1F` (relative stereo), the melting point was 143 to 146 °C.
Compound `COc1ccc2c(c1)c1c3c(c(-c4ccccc4Cl)cc1n2CCC(N)=O)C(=O)NC3=O` has a melting point of 283 to 286 °C.
In the case of `S=C(NCCCc1ccccc1)Nc1nccs1`, the melting point is reported as 126 to 128 °C.
For `O=C(O)[C@@H]1CC[C@@H](Oc2ccccc2)c2c(-c3ccc(Cl)cc3)noc2C1` (relative stereo), the melting point was 182 to 183 °C.
Compound `Cc1on(C(=O)N(Cc2ccccc2)c2ccccc2)c(=O)c1Cl` has a melting point of 118 to 119 °C.
With `COc1ccc(-c2cc(=Nc3c(C)cc(C)cc3C)n(C)c(=O)n2C)cc1N` the melting point was 176 to 178 °C.
For `Cn1ncc(Cl)c(NCCN2CCC(c3noc4cc(F)ccc34)CC2)c1=O`, the melting point was 108 to 109 °C.
In the case of `O=C(O)c1ccc(C=Cc2cc(=O)cc(-c3ccccc3)o2)cc1`, the melting point is reported as > 300 °C.
`Cn1cccc1CC(=O)O` showed a melting point of 97 to 100 °C.
Compound `CC(c1ccc(C=Cc2ccccc2)o1)N(O)C(N)=O` (configuration not stated) has a melting point of 140 °C.
Compound `CC1(C)CON(Cc2c(Cl)cccc2[N+](=O)[O-])C1=O` has a melting point of 86 to 88 °C.
`CC(=O)c1ccc(C2=NC[C@@H](O)[C@H](c3ccccc3)O2)cc1` (racemic) gave a melting point of 130 °C.
With `CCCCCCCCCCCCCCCCCCNC(=O)NCCCN` the melting point was 116 to 140 °C.
In the case of `N#CC1Cc2ccc(Nc3ccncc3N)cc2C1` (configuration not stated), the melting point is reported as 98 to 100 °C.
In the case of `C=CC(=O)N1Cc2cc(OC)ccc2SC(Cl)C1` (configuration not stated), the melting point is reported as 97.5 to 99.5 °C.
`CCOCc1cc2c([N+](=O)[O-])cccc2cn1` showed a melting point of 54 °C.
With `CC(=O)Nc1ccc(-c2cccc(C3=NC(C)(C)Cc4cc(O)c5c(c43)CC(C)(C)O5)c2)cc1` the melting point was 185 to 189 °C.
In the case of `Cc1c(C#N)c2c(c(C)c1NC(=O)CC(C)(C)C)C(c1ccc(C(C)C)cc1)CO2` (configuration not stated), the melting point is reported as 135 to 136 °C.
`O=C(O)CC(O)(CC(=O)O)C(F)(F)F` showed a melting point of 102 to 105 °C.
Compound `O=C(O)C1=Cc2ccc(Br)cc2OC1C(F)(F)F` (configuration not stated) has a melting point of 198 to 200 °C.
Work on `O=C(O)c1ccccc1C(=O)c1c(-c2ccccc2)[nH]c2ccccc12` yielded a melting point of 106 to 107 °C.
In the case of `COC(=O)c1nc(C)n2c1CN=C(c1ccccc1Cl)c1cc(Cl)ccc1-2`, the melting point is reported as 225 to 227 °C.
Work on `CC(C)(C)C1=CC(=O)C=CC1=O` yielded a melting point of 55 to 60 °C.
`C#CCCCCC(=O)Nc1nc2nn(C)cc2c2nc(-c3ccco3)nn12` showed a melting point of 208 to 215 °C.
For `CCCc1c[nH]cc2c(=O)n(-c3ccc(OC)cc3)nc1-2`, the melting point was 165 °C.
Work on `CC(=O)OC1CSC(Oc2ccncc2)C(OC(C)=O)C1OC(C)=O` (configuration not stated) yielded a melting point of 152 to 158 °C.
For `COc1ccc2c(c1)C(=O)N(c1ccc3c(c1)CCCN3C)C2`, the melting point was 123 to 127 °C.
Compound `CN(Cc1ccc2c(Br)c(OCc3nnn[nH]3)ccc2c1)C(=O)c1cn(Cc2ccccc2)c2ccccc12` has a melting point of 197 to 198 °C.
`COc1ccc([N+](=O)[O-])c(CC#N)n1` gave a melting point of 116 to 117 °C.
Compound `COc1cc(Nc2ncc(C#N)c(-c3ccc(CO)cc3)n2)cc(OC)c1OC` has a melting point of 188 to 191 °C.
Compound `C#CCOCc1c(C)nc2c(OCc3ccccc3Cl)cccn12` has a melting point of 95 to 95.5 °C.
`CSc1ccc(C(O)c2ccccc2)cc1` (configuration not stated) showed a melting point of 92 to 93.5 °C.
`CCCCOc1ccc(C(C)N(O)C(N)=O)cc1` (configuration not stated) showed a melting point of 137 to 138 °C.
For `CCOC(=O)C(Cc1cc2cc(C#N)ccc2o1)c1ccc(O)cc1` (configuration not stated), the melting point was 140 to 142 °C.
`COc1cc(Nc2nc3cccc(-c4ccc(NS(C)(=O)=O)cc4)c3o2)cc(OC)c1OC` showed a melting point of 222 to 225 °C.
`CCCCCCOc1ccc(NC(=O)c2cn(-c3ccc(F)cc3)nc2C)cc1C#N` showed a melting point of 160 to 161 °C.
`O=S(=O)(Nc1n[nH]c(SCc2ccc(Oc3ccc(F)cc3)cc2)c1-c1ccccn1)c1c(Cl)cccc1Cl` showed a melting point of 185 to 186 °C.
Work on `CCC1(Cl)Cc2cc(OC(C)(C)C(=O)O)c(Cl)c(Cl)c2C1=O` (configuration not stated) yielded a melting point of 164 to 165 °C.
In the case of `O=C(CN1c2nc(-c3ccncn3)cc(=O)n2CCC12CCN(C(=O)c1cccc(F)c1)C2)c1ccccc1` (configuration not stated), the melting point is reported as 267 to 268 °C.
Compound `CCOC(=O)C(=O)c1cc(Cl)c(C)cc1F` has a melting point of 84 to 85 °C.
Compound `COC(=O)c1ccn2cc(C)nc2c1` has a melting point of 149 °C.
In the case of `CC(=O)Nc1cc2c3c(c1)[nH]c(=O)n3C[C@H](C)N(CC1CC1)C2`, the melting point is reported as 244 °C.
With `CC(C)N(c1cccc2cc(-c3ncc(CCl)s3)[nH]c12)S(=O)(=O)c1cccs1` the melting point was 184 to 185 °C.
For `Cc1nnc2n1-c1sc(C#CCN3C(=O)C(=O)c4ccccc43)cc1C(c1ccccc1Cl)=NC2`, the melting point was 185 to 190 °C.
In the case of `CCc1nn2c(-c3ccc(OC)cc3OC)cccc2c1N(CC)CCF`, the melting point is reported as 51.2 to 53.6 °C.
For `Cc1[nH]cnc1CN1CCc2c(c3cccc4c3n2CCCC4)C1=O`, the melting point was 215 to 216 °C.
`N#Cc1cc(C(F)(F)F)[nH]c1-c1ccc(Cl)c([N+](=O)[O-])c1` showed a melting point of 258 to 260 °C.
With `CC(O)C1=C(c2ccccc2)C(=O)N(C(C)(C)C(=O)Nc2cc(Cl)cc(Cl)c2)CO1` (configuration not stated) the melting point was 85 to 88 °C.
Compound `CCC(=O)Nc1cccc2c1CCC(NC(=O)CC)C2` (configuration not stated) has a melting point of 270 °C.
`CC1(C)Oc2ccc(C#N)cc2C(n2ccc(-c3ccc([N+](=O)[O-])cc3)cc2=O)C1O` (configuration not stated) gave a melting point of 278 to 284 °C.
In the case of `CCC(CC)(CC(=O)Nc1cccc(OCc2ccc3cc(F)ccc3n2)c1)C(=O)O`, the melting point is reported as 88 to 90 °C.
In the case of `CC#CCOc1ccc(SC(C(=O)NO)c2cccc(Cl)c2)cc1` (configuration not stated), the melting point is reported as 127 °C.
Compound `CC(=O)c1ccc(-c2ccc(C(C)=O)s2)s1` has a melting point of 235 °C.
Compound `CC1=C(C(=O)Nc2cnc3c(C)cc(C)cc3c2-c2ccccc2Cl)Sc2ccccc2N1` has a melting point of 177 to 178 °C.
In the case of `CCN(CC)CC1CCCCN1CCCNC(=O)N1c2ccccc2NC(=O)c2ccccc21` (configuration not stated), the melting point is reported as 148 to 150 °C.
Work on `S=C(NCCCCN(Cc1ccc(Cl)c(Cl)c1)c1ccccn1)NCCCn1ccnc1` yielded a melting point of 112 to 114 °C.
Work on `N#CSc1cc([N+](=O)[O-])ccc1Cl` yielded a melting point of 103 °C.
In the case of `CC(CS)C(=O)N1C(C(=O)O)CC2CCCCC21` (configuration not stated), the melting point is reported as 141 to 142 °C.
`O=[N+]([O-])c1ccc(CN2CCN(CC(O)COc3cccc4[nH]c5ccccc5c34)CC2)o1` (configuration not stated) gave a melting point of 54 to 59 °C.
`CCN1c2ccccc2N(C)C(=O)c2cccnc21` gave a melting point of 106 to 111 °C.
`N#Cc1ccc2oc(-c3ccccc3)cc2c1` gave a melting point of 138 to 141 °C.
`FC(F)(F)c1cc(CO[C@H]2CCCN(Cc3ncncn3)[C@H]2c2ccccc2)cc(C(F)(F)F)c1` showed a melting point of 117 to 119 °C.
Compound `CCOC(=O)c1c(=O)c2cc(F)c(Cl)cc2n2c(CN(C)C)csc12` has a melting point of 276 °C.
`CC(C)(C)c1cc(-c2nn(CCCCl)c3ncccc23)cc(C(C)(C)C)c1O` showed a melting point of 107 to 109 °C.
In the case of `CN(CCOc1ccc(CC(Cl)C(=O)O)cc1)c1nc2ccccc2o1` (configuration not stated), the melting point is reported as 142 to 143 °C.
Compound `CC(=O)N1CC(=O)N(CC(N)=O)C1(C)C` has a melting point of 188 to 189 °C.
In the case of `Cc1cc(Cc2ccccc2)c(NC(=O)NCc2ccccc2)c(=O)n1CC(=O)O`, the melting point is reported as 176 °C.
Work on `COc1ccc(N(C(=O)CN2C(=O)C(Cc3nn(Cc4ccccc4)c4ccccc34)(OC)C(=O)Nc3ccccc32)C(C)C)cc1` (configuration not stated) yielded a melting point of 202 to 204 °C.
Work on `N#CCCn1cccc1C1=CC(=O)c2ccccc2C1=O` yielded a melting point of 127 to 128 °C.
`Cc1ccccc1C(=O)Nc1ccc(C(=O)N2Cc3ccnn3Cc3ccccc32)cc1` gave a melting point of 142 to 146 °C.
For `CC(C)c1[nH]c(=O)[nH]c1-c1cc(C(C)(C)C)c(O)c(C(C)(C)C)c1`, the melting point was > 290 °C.
With `CON=C1CSc2ccccc2CN1` the melting point was 101 to 102 °C.
`CCCCCCCCCCCCCCC(O)(CCCCCC(=O)O)CCCCCC(=O)O` showed a melting point of 79 to 80 °C.
`O=C(NCCN1CCOCC1)c1nnc2ccccc2c1O` gave a melting point of 196 to 198 °C.
Work on `CC(C)c1cccc2c1C(=O)N(COC(=O)c1c(Cl)ccc(O)c1Cl)S2(=O)=O` yielded a melting point of 78 to 80 °C.
Compound `CC(=O)N(C)c1nc(C(C)(C)C)nn1-c1c(Cl)cc(Cl)cc1Cl` has a melting point of 93 to 94 °C.
For `CCCc1nc(S(C)=O)c(C(=O)OCC)n1Cc1cc2c(cc1Cl)OCO2` (configuration not stated), the melting point was 187 °C.
